Assay type in all cases: cell-based
Assay [1] concerns Ba/F3 cells expressing EGFR-wt. Nature of the assay: Growth inhibition (GI50) of Ba/F3 cells expressing EGFR-wt, Celltiter glo. The settings on record: Mus musculus, BaF3, 72 h. Summed up:
(§1)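 Viable-cell luminescence (CellTiter-Glo) after 72 h compound exposure at 37 °C, 5% CO2 gave GI50 (μM, 50% growth inhibition). Compounds were 4-fold serial dilutions, 10 points, from a 2 mM stock, 0.5% DMSO, added 4 h after plating EGFR-variant Ba/F3 cells at 100,000 cells/ml.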
For orientation: ATP-based viability assays read luminescence as a measure of living cells.

The subject of assay [2] is Ba/F3 cells expressing L858R/T790M/C797S (EGFR-LTC). Kind of assay: Growth inhibition (GI50) of Ba/F3 cells expressing L858R/T790M/C797S (EGFR-LTC), Celltiter glo. The settings on record: Mus musculus, BaF3, 72 h. The gist of the method: as §1
Assay [3] relates to Ba/F3 cells expressing del19/T790M (EGFR-DT). Kind of assay: Growth inhibition (GI50) of Ba/F3 cells expressing del19/T790M (EGFR-DT), Celltiter glo. The settings on record: Mus musculus, BaF3, 72 h. The gist of the method: as §1
The subject of assay [4] is Ba/F3 cells expressing del19/T790M/C797S (EGFR-DTC). Kind of assay: Growth inhibition (GI50) of Ba/F3 cells expressing del19/T790M/C797S (EGFR-DTC), Celltiter glo. The settings on record: Mus musculus, BaF3, 72 h. The gist of the method: as §1
Assay [5] deals with Ba/F3 cells expressing L858R/T790M (EGFR-LT). Kind of assay: Growth inhibition (GI50) of Ba/F3 cells expressing L858R/T790M (EGFR-LT), Celltiter glo. The settings on record: Mus musculus, BaF3, 72 h. The gist of the method: as §1
The next assay relates to parental Ba/F3 cell line. Nature of the assay: Growth inhibition (GI50) of the parental Ba/F3 cell line (not introduced with EGFR variants), Celltiter glo. The settings on record: Mus musculus, BaF3, 72 h, parental Ba/F3 cells. Summed up: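 Viable cell count by CellTiter-Glo after 72 h at 37 °C gave GI50 values (μM, 50% growth inhibition). Cells lacking EGFR variants were seeded at 100,000 cells/ml and dosed 4 h later with 4-fold serial dilutions from a 2 mM stock, 0.5% DMSO.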

Regarding `COc1cc(N2CCC(N3CCN(C4CC4)CC3)CC2)c(C)cc1Nc1ncc(Cl)c(Nc2cc3c(cc2N(C)S(C)(=O)=O)CCO3)n1` [Example 266, N-(6-((5-chloro-2-((4-(4-(4-cyclopropylpiperazin-1-yl)piperidin-1-yl)-2-methoxy-5-methylphenyl)amino)pyrimidin-4-yl)amino)-2,3-dihydrobenzofuran-5-yl)-N-methylmethanesulfonamide], the GI50 in assay [1] is 2000 to 10000 nM; in assay [2], 100 to 500 nM; in assay [3], 25 to 100 nM; in assay [4], 500 to 2000 nM; in assay [5] it was 100 to 500 nM; in the assay on parental Ba/F3 cell line it was 2000 to 10000 nM.

`COc1nc(N2CCC(N3CCN(C)CC3)CC2)c(C)cc1Nc1ncc(Br)c(Nc2cc(Cl)ccc2NS(C)(=O)=O)n1` [Example 86, N-(2-((5-bromo-2-((2-methoxy-5-methyl-6-(4-(4-methylpiperazin-1-yl)piperidin-1-yl)pyridin-3-yl)amino)pyrimidin-4-yl)amino)-4-chlorophenyl)methanesulfonamide]: the GI50 was in the range of 500 to 2000 nM in assay [1]; 1 to 25 nM in assay [2]; 1 to 25 nM in assay [3]; 25 to 100 nM in assay [4]; 25 to 100 nM in assay [5]; 2000 to 10000 nM in the assay with parental Ba/F3 cell line.

As for `COc1ccc(NS(C)(=O)=O)c(Nc2nc(Nc3cc(Cl)c(N4CCC(N5CCN(C)CC5)CC4)cc3Cl)ncc2Cl)c1` [Example 202, N-(2-((5-chloro-2-((2,5-dichloro-4-(4-(4-methylpiperazin-1-yl)piperidin-1-yl)phenyl)amino)pyrimidin-4-yl)amino)-4-methoxyphenyl)methanesulfonamide], the concentration for 50% growth inhibition (GI50) in assay [1] fell in the range of 100 to 500 nM; in assay [2], 25 to 100 nM; in assay [3], 1 to 25 nM; in assay [4] it was 25 to 100 nM; in assay [5] it was 25 to 100 nM; in the assay on parental Ba/F3 cell line, 100 to 500 nM.

Take `CN1CCN(C2CCN(c3ccc(Nc4ncc(Br)c(Nc5cc(Cl)ccc5NS(C)(=O)=O)n4)cc3F)CC2)CC1` [Example 87, N-(2-((5-bromo-2-((3-fluoro-4-(4-(4-methylpiperazin-1-yl)piperidin-1-yl)phenyl)amino)pyrimidin-4-yl)amino)-4-chlorophenyl)methanesulfonamide]: the 50% growth inhibitory concentration (GI50) fell in the range of 100 to 500 nM in assay [1]; 25 to 100 nM in assay [2]; 25 to 100 nM in assay [3]; 25 to 100 nM in assay [4]; 25 to 100 nM in assay [5]; 100 to 500 nM in the assay on parental Ba/F3 cell line.

`COc1cc(N2CCC(N3CCN(C)CC3)CC2)c(C)cc1Nc1ncc(Cl)c(Nc2cc(Cl)ccc2NS(C)(=O)=O)n1` [Example 80, N-(4-chloro-2-((5-chloro-2-((2-methoxy-5-methyl-4-(4-(4-methylpiperazin-1-yl)piperidin-1-yl)phenyl)amino)pyrimidin-4-yl)amino)phenyl)methanesulfonamide]: the GI50 in assay [1] was in the range of 100 to 500 nM; in assay [2], 1 to 25 nM; in assay [3], 1 to 25 nM; in assay [4], 1 to 25 nM; in assay [5], 1 to 25 nM; with parental Ba/F3 cell line it was 2000 to 10000 nM.

`COc1cc(N2CCC(N3CCN(C)CC3)CC2)c(C)cc1Nc1ncc(Cl)c(Nc2ccc3c(c2)N(C)CC3)n1` [Example 272]: the 50% growth inhibitory concentration (GI50) fell in the range of 2000 to 10000 nM in assay [1]; 500 to 2000 nM in assay [2]; 500 to 2000 nM in assay [3]; 500 to 2000 nM in assay [4]; 500 to 2000 nM in assay [5]; 2000 to 10000 nM in the assay with parental Ba/F3 cell line.

The term GI50 denotes the concentration that inhibits growth by half.

These data come from patent publication US20240228458A1, “PYRIMIDINE DERIVATIVE HAVING PROTEIN KINASE INHIBITORY ACTIVITY, AND THERAPEUTIC PHARMACEUTICAL COMPOSITION COMPRISING SAME” (THERAPEX CO., LTD., priority 2021, published 2024).
